Experimental data: patent US9163256B2, “Mutant receptors and their use in a nuclear receptor-based inducible gene expression system” (priority 2004, dated 2015)

Assays:
CfEcR-DEF mutant A110P = CfEcR-DEF mutant A110P (Choristoneura fumiferana, UniProt O77255, A393P); experiment: cell-based; conditions: mutant A110P
How it was run: (§1)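 Mutant CfEcR-DEF receptor and GAL4-driven luciferase reporter constructs transfected into mouse NIH3T3 cells with DMSO or ligand added; maintained 48 h at 37° C in 5% FBS, harvested 40 h after ligand addition. Dual-luciferase read-out; fold induction = RLU with ligand / RLU with DMSO.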

CfEcR-DEF mutant F109N = CfEcR-DEF mutant F109N (Choristoneura fumiferana, UniProt O77255, F392N); experiment: cell-based; conditions: mutant F109N
How it was run: as §1

CfEcR-DEF mutant F109W = CfEcR-DEF mutant F109W (Choristoneura fumiferana, UniProt O77255, F392W); experiment: cell-based; conditions: mutant F109W
Sequence of CfEcR-DEF mutant F109W (O77255 entry or part of it F392W): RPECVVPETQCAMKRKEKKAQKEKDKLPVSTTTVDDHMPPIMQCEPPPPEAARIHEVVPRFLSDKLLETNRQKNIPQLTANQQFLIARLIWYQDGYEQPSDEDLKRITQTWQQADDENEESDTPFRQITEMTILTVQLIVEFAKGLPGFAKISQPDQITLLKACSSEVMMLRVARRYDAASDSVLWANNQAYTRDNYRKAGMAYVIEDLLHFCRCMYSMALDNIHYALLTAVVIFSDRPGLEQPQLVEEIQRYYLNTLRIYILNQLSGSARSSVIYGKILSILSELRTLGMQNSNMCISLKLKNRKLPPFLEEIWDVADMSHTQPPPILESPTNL
Sequence of CfEcR-DEF mutant F109W (P28702 299-449, further chain): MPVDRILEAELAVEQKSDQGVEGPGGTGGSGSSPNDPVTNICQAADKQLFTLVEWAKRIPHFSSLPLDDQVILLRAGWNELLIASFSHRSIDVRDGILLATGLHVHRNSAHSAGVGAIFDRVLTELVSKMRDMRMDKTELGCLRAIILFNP
How it was run: as §1

CfEcR-DEF mutant I51L = CfEcR-DEF mutant I51L (Choristoneura fumiferana, UniProt O77255, I334L); experiment: cell-based; conditions: mutant I51L
How it was run: as §1

CfEcR-DEF mutant L132V = CfEcR-DEF mutant L132V (Choristoneura fumiferana, UniProt O77255, L415V); experiment: cell-based; conditions: mutant L132V
Sequence of CfEcR-DEF mutant L132V (O77255 entry or part of it L415V): as the sequence (O77255 entry or part of it F392W) above, with W186F, L209V counted along it
Sequence of CfEcR-DEF mutant L132V (P28702 298-449, further chain): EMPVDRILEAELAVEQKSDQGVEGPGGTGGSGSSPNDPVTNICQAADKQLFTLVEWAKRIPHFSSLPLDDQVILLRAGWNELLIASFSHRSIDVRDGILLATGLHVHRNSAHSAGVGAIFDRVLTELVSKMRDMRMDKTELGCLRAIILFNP
How it was run: as §1

CfEcR-DEF mutant M125C = CfEcR-DEF mutant M125C (Choristoneura fumiferana, UniProt O77255, M408C); experiment: cell-based; conditions: mutant M125C
How it was run: as §1

CfEcR-DEF mutant M125E = CfEcR-DEF mutant M125E (Choristoneura fumiferana, UniProt O77255, M408E); experiment: cell-based; conditions: mutant M125E
Sequence of CfEcR-DEF mutant M125E (O77255 entry or part of it M408E): as the sequence (O77255 entry or part of it F392W) above, with W186F, M202E counted along it
Sequence of CfEcR-DEF mutant M125E (P28702 299-449, further chain): as the sequence (P28702 299-449, further chain) above
How it was run: as §1

CfEcR-DEF mutant M125L = CfEcR-DEF mutant M125L (Choristoneura fumiferana, UniProt O77255, M408L); experiment: cell-based; conditions: mutant M125L
How it was run: as §1

CfEcR-DEF mutant M125P = CfEcR-DEF mutant M125P (Choristoneura fumiferana, UniProt O77255, M408P); experiment: cell-based; conditions: mutant M125P
How it was run: as §1

CfEcR-DEF mutant R95H = CfEcR-DEF mutant R95H (Choristoneura fumiferana, UniProt O77255, R378H); experiment: cell-based; conditions: mutant R95H
How it was run: as §1

CfEcR-DEF mutant R95W = CfEcR-DEF mutant R95W (Choristoneura fumiferana, UniProt O77255, R378W); experiment: cell-based; conditions: mutant R95W
How it was run: as §1

CfEcR-DEF mutant T52L = CfEcR-DEF mutant T52L (Choristoneura fumiferana, UniProt O77255, T335L); experiment: cell-based; conditions: mutant T52L
Sequence of CfEcR-DEF mutant T52L (P28702 298-449): as the sequence (P28702 298-449, further chain) above
Sequence of CfEcR-DEF mutant T52L (O77255 entry or part of it T335L): as the sequence (O77255 entry or part of it F392W) above, with T129L, W186F counted along it
How it was run: as §1

[1] = target: CfEcR-DEF mutant V128F/A110P (Choristoneura fumiferana, UniProt O77255, A393P/V411F); experiment: cell-based; conditions: mutant V128F/A110P
Sequence of CfEcR-DEF mutant V128F/A110P (P28702 299-449, stated change not applied): as the sequence (P28702 299-449, further chain) above
Sequence of CfEcR-DEF mutant V128F/A110P (O77255 entry or part of it A393P/V411F): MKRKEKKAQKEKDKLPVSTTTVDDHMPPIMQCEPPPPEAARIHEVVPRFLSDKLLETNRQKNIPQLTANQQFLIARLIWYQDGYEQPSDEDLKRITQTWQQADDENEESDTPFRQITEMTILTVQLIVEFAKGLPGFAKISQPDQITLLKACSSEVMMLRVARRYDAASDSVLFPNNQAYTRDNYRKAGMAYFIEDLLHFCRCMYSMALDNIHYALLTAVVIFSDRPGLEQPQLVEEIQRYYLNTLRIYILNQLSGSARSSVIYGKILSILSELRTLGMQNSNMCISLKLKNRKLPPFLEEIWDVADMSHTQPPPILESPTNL
How it was run: as §1

CfEcR-DEF mutant V96W = CfEcR-DEF mutant V96W (Choristoneura fumiferana, UniProt O77255, V379W); experiment: cell-based; conditions: mutant V96W
How it was run: as §1

CfEcR-DEF mutant W238P = CfEcR-DEF mutant W238P (Choristoneura fumiferana, UniProt O77255, W521P); experiment: cell-based; conditions: mutant W238P
How it was run: as §1

CfEcR-DEF mutant W238Y = CfEcR-DEF mutant W238Y (Choristoneura fumiferana, UniProt O77255, W521Y); experiment: cell-based; conditions: mutant W238Y
How it was run: as §1

CfEcR-DEF mutant A110N = CfEcR-DEF mutant A110N (Choristoneura fumiferana, UniProt O77255, A393N); experiment: cell-based; conditions: mutant A110N
Sequence of CfEcR-DEF mutant A110N (O77255 entry or part of it A393N): as the sequence (O77255 entry or part of it F392W) above, with W186F, A187N counted along it
Sequence of CfEcR-DEF mutant A110N (P28702 299-449, stated change not applied, further chain): as the sequence (P28702 299-449, further chain) above
Protocol: (§2) This construct was prepared in the same way as in switch 1.1 above except wild-type CfEcR-DEF was replaced with mutant CfEcR-DEF comprising a ligand binding domain comprising a substitution mutation selected from Table 1 below.
(§3) DNAs were transfected into mouse NIH3T3 cells (ATCC) as follows. Standard methods for culture and maintenance of the cells were followed. Cells were harvested and plated 96-well plates at 2,500 cells per well, in 50 μL of growth medium containing 10% fetal bovine serum (FBS). Twenty-four hours later, the cells were treated with 35 μL of serum-free growth medium containing either dimethylsulfoxide (DMSO; control) or a DMSO solution of ligand. The cells were then transfected using Superfect (Qiagen Inc.) transfection reagent. For each well, 0.625 μL of Superfect was mixed with 14.2 μL of serum-free growth medium. 0.16 μg of reporter construct and 0.04 μg of each receptor construct were added to the transfection reagent mix. The contents of the transfection mix were mixed in a vortex mixer and let stand at room temperature for 30 minutes. At the end of incubation, 15 μL of transfection mix was added to the cells. The cells were maintained at 37° C. and 5% CO2 for 48 hours in 5% FBS.
(§4) Reporter Assays: Cells were harvested 40 hours after adding ligands. 125 μL of passive lysis buffer (part of Dual-Luciferase reporter assay system from Promega Corporation) were added to each well of the […] plate. The plates were placed on a rotary shaker for 15 minutes. Twenty μL of lysate were assayed. Luciferase activity was measured using Dual-Luciferase reporter assay system from Promega Corporation following the manufacturer's instructions. Fold induction (FI) activities were calculated by dividing relative light units (“RLU”) in ligand treated cells with RLU in DMSO treated cells (untreated control).

CfEcR-DEF mutant F48N = CfEcR-DEF mutant F48N (Choristoneura fumiferana, UniProt O77255, F331N); experiment: GAL4-driven luciferase reporter assay in NIH3T3 cells; format: cell-based; conditions: mutant F48N
Sequence of CfEcR-DEF mutant F48N (O77255 entry or part of it F331N): as the sequence (O77255 entry or part of it F392W) above, with F125N, W186F counted along it
Sequence of CfEcR-DEF mutant F48N (P28702 299-449, further chain): as the sequence (P28702 299-449, further chain) above
Protocol: as §2, §3, §4

CfEcR-DEF mutant M125W = CfEcR-DEF mutant M125W (Choristoneura fumiferana, UniProt O77255, M408W); experiment: as above; format: cell-based; conditions: mutant M125W
Protocol: as §2, §3, §4

[2] = target: CfEcR-DEF mutant T52V/A110P (Choristoneura fumiferana, UniProt O77255, A393P/T335V); experiment: as above; format: cell-based; conditions: mutant T52V/A110P
Sequence of CfEcR-DEF mutant T52V/A110P (O77255 entry or part of it T335V/A393P): as the sequence (O77255 entry or part of it A393P/V411F) above, with T117V, F193V counted along it
Sequence of CfEcR-DEF mutant T52V/A110P (P28702 299-449, stated change not applied, further chain): as the sequence (P28702 299-449, further chain) above
Protocol: as §2, §3, §4

[3] = target: CfEcR-DEF mutant V107I/Y127E/T52V (Choristoneura fumiferana, UniProt O77255, T335V/V390I/Y410E); experiment: as above; format: cell-based; conditions: mutant V107I/Y127E/T52V
Protocol: as §2, §3, §4

[4] = relative to max fold induction of GS-E ligand

Sequence of CfEcR-DEF mutant A110P (O77255 entry or part of it A393P): as the sequence (O77255 entry or part of it F392W) above, with W186F, A187P counted along it
Sequence of CfEcR-DEF mutant A110P (P28702 299-449, stated change not applied, further chain): as the sequence (P28702 299-449, further chain) above

Q: With `CC(C)CC[C@@H](O)[C@](C)(O)[C@H]1CC[C@@]2(O)C3=CC(=O)[C@@H]4C[C@@H](O)[C@@H](O)C[C@]4(C)[C@H]3CC[C@]12C` [PonA, ponasterone A] as the molecule, how does the EC50 (CfEcR-DEF mutant A110P; read-out: EC50) read?
A: > 33 µM

Q: What about the “Rel Max FI” value (CfEcR-DEF mutant A110P; [4]) of the same molecule?
A: 0

Q: What about the “Rel Max FI” value (CfEcR-DEF mutant F109N) of the same molecule?
A: 0

Q: What about the EC50 (CfEcR-DEF mutant F109N; read-out: EC50) of the same molecule?
A: > 33 µM

Q: What about the EC50 (CfEcR-DEF mutant F109W; read-out: EC50) of the same molecule?
A: 4.06 µM

Q: What about the “Rel Max FI” value (CfEcR-DEF mutant F109W; [4]) of the same molecule?
A: 0.08

Q: What about the “Rel Max FI” value (CfEcR-DEF mutant I51L) of the same molecule?
A: 0.66

Q: And the EC50 (CfEcR-DEF mutant I51L; read-out: EC50)?
A: ~8 µM

Q: What about the EC50 (CfEcR-DEF mutant L132V; read-out: EC50) of the same molecule?
A: 6.56 µM

Q: And the “Rel Max FI” value (CfEcR-DEF mutant L132V; [4])?
A: 0.57

Q: And the “Rel Max FI” value (CfEcR-DEF mutant M125C)?
A: 0.28

Q: And the “Rel Max FI” value (CfEcR-DEF mutant M125E)?
A: 0

Q: And the EC50 (CfEcR-DEF mutant M125E; read-out: EC50)?
A: > 33 µM

Q: What about the “Rel Max FI” value (CfEcR-DEF mutant M125L) of the same molecule?
A: 0

Q: And the EC50 (CfEcR-DEF mutant M125L; read-out: EC50)?
A: > 33 µM

Q: And the “Rel Max FI” value (CfEcR-DEF mutant M125P)?
A: 0.7

Q: And the EC50 (CfEcR-DEF mutant M125P; read-out: EC50)?
A: > 33 µM

Q: What about the “Rel Max FI” value (CfEcR-DEF mutant R95H) of the same molecule?
A: 0.03

Q: What about the EC50 (CfEcR-DEF mutant R95H; read-out: EC50) of the same molecule?
A: > 33 µM

Q: What about the “Rel Max FI” value (CfEcR-DEF mutant R95W) of the same molecule?
A: 0

Q: And the EC50 (CfEcR-DEF mutant R95W; read-out: EC50)?
A: > 33 µM

Q: What about the EC50 (CfEcR-DEF mutant T52L; read-out: EC50) of the same molecule?
A: 5.03 µM

Q: What about the “Rel Max FI” value (CfEcR-DEF mutant T52L; [4]) of the same molecule?
A: 0.54

Q: And the “Rel Max FI” value [1]?
A: 0

Q: What about the EC50 ([1]; read-out: EC50) of the same molecule?
A: > 33 µM

Q: And the “Rel Max FI” value [1, 4]?
A: 0.00

Q: What about the “Rel Max FI” value (CfEcR-DEF mutant V96W) of the same molecule?
A: 0.83

Q: What about the EC50 (CfEcR-DEF mutant V96W; read-out: EC50) of the same molecule?
A: ~3.3 µM

Q: What about the EC50 (CfEcR-DEF mutant W238P; read-out: EC50) of the same molecule?
A: ~3.3 µM

Q: What about the “Rel Max FI” value (CfEcR-DEF mutant W238P; [4]) of the same molecule?
A: 0.73

Q: And the “Rel Max FI” value (CfEcR-DEF mutant W238Y)?
A: 0.07

Q: And the EC50 (CfEcR-DEF mutant W238Y; read-out: EC50)?
A: > 33 µM

Q: And the EC50 (CfEcR-DEF mutant A110N; read-out: EC50)?
A: > 33 µM

Q: What about the “Rel Max FI” value (CfEcR-DEF mutant A110N; [4]) of the same molecule?
A: 0

Q: What about the “Rel Max FI” value (CfEcR-DEF mutant F48N) of the same molecule?
A: 0.17

Q: And the EC50 (CfEcR-DEF mutant F48N; read-out: EC50)?
A: ~20 µM

Q: And the “Rel Max FI” value (CfEcR-DEF mutant M125W)?
A: 0

Q: What about the EC50 (CfEcR-DEF mutant M125W; read-out: EC50) of the same molecule?
A: > 33 µM

Q: And the EC50 ([2]; read-out: EC50)?
A: > 33 µM

Q: What about the “Rel Max FI” value [2, 4] of the same molecule?
A: 0

Q: And the EC50 ([3]; read-out: EC50)?
A: ~1 µM

Q: What about the “Rel Max FI” value [3, 4] of the same molecule?
A: 0.67
